Source: article PMC10057480, “Expanding the Library of 1,2,4-Oxadiazole Derivatives: Discovery of New Farnesoid X Receptor (FXR) Antagonists/Pregnane X Receptor (PXR) Agonists” (Molecules, 2023)

Assays:
PXR = target: T1, PXR (Homo sapiens, UniProt O75469); assay: PXR luciferase reporter transactivation assay (agonism) on HepG2 cells; format: cell-based; conditions: concentration-response, mean ± SEM, at least three experiments
T1 construct: expressed in transfected cells; host or cells: HepG2
T1 sequence (O75469 1-434): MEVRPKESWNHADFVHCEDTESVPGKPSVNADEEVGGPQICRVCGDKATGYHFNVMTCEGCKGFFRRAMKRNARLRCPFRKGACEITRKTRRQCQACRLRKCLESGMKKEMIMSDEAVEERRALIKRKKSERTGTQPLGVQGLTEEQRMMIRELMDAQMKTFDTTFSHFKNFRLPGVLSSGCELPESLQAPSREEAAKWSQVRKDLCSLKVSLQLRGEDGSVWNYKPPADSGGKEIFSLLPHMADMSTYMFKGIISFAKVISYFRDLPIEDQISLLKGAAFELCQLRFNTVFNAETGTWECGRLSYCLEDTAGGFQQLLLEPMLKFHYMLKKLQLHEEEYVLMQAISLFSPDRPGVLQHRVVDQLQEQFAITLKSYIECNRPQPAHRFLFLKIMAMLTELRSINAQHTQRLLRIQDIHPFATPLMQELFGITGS
T1 sequence (P19793 1-462 partner): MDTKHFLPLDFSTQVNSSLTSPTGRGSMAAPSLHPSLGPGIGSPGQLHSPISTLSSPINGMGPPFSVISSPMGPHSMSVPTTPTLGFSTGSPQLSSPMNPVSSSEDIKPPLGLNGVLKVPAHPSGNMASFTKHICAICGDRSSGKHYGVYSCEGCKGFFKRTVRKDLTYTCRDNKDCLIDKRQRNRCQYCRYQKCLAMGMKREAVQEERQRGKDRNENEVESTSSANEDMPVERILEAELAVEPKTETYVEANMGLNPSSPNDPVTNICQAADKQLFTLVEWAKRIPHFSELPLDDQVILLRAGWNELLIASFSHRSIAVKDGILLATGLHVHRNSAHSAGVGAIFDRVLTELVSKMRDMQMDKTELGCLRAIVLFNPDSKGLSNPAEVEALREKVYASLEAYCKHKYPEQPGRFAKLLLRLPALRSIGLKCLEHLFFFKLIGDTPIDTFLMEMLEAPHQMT

[1] = LogD measurement (1-octanol/PBS pH 7.4, LC-MS/MS); format: physicochemical
Experimental: 40 μL of a 10 mM solution in DMSO of each compound was added to a 2 mL test tube containing 980 μL of PBS pH 7.4 and 980 μL of 1-Octanol (in duplicate). The tubes were shaken for 2 h at room temperature and subsequently kept still to allow for an optimal phase separation. The two phases were then separated, and 10 μL of each sample was diluted in 490 μL of MeOH for LC-MS/MS analysis. LogD was calculated as Log10 of the ratio of mass signal octanol/PBS. LC-MS/MS analysis was conducted using a Kinetex 2.6 µm C18 100 Å LC column 100 × 2.1 mm by means of a linear gradient of the aqueous phase (H2O 0.1% FA) and organic phase (ACN 0.1% FA).

[2] = system: FXR target genes (BSEP, OSTα, NTCP) in HepG2 cells; assay: qPCR of FXR target genes in HepG2 cells; format: cell-based; conditions: 6-ECDCA 10 μM plus compound
Experimental: HepG2 and CaCo2 cell lines, obtained from ATCC, were routinely cultured in Eagle’s MEM and high-glucose DMEM, respectively, supplemented with 10% FBS, 1% glutamine, and penicillin/streptomycin. For in vitro experiments, HepG2 (2 × 106) cells were stimulated with 6-ECDCA at a concentration of 10 µM alone or in combination with compound 5 or 11, and CaCo2 cells were exposed to TNFα (100 ng/mL) alone or in combination with rifaximin, compound 5, or 11.
Total RNA was isolated from the HepG2 and CaCo2 cell lines using TRI reagent (Zymo Research) and Direct-zol™ RNA MicroPrep w/Zymo-Spin™ IIC Columns (Zymo Research, Irvine, CA, USA). After purification from genomic DNA using DNase I (Thermo Fisher Scientific, Waltham, MA, USA), 2 μg of RNA from each sample was reverse transcribed using Kit FastGene Scriptase Basic (Nippon Genetics, Mariaweilerstraße, Düren, Germany) in 20-μL of reaction volume, and 50 ng of cDNA was amplified in a 20-μL solution containing 200 nM of each primer and 10 μL of PowerUp™ SYBR™ Green Master Mix (Thermo Fisher Scientific, Waltham, MA, USA) using a Quantstudio 3 system (Applied Biosystems, Foster City, CA, USA). The relative mRNA expression was calculated according to the ΔCt method. The primer used were as follows (forward and reverse): hGapdh (for […]; rev […]), hBsep (for […]; rev […]), hOstα (for […]; rev […]), hNtcp (for […]; rev […]), hPxr (for GCAAGGGCTTTTTCAGGAG; rev GGGTCTTCCGGGTGATCT), hIl-8 (for […]; rev […]), hIl-1β (for […]; rev […]).

Row | EC50 (PXR) | logD at 2 h [1] | SMILES | Effect on BSEP mRNA expression induced by 6-ECDCA [2] | Effect on OSTα mRNA expression induced by 6-ECDCA [2] | Effect on NTCP mRNA expression [2]
1 | 7.5 ± 1 µM | 3.9 | OCc1ccc(CN2CCC(c3nc(-c4ccc5ccccc5c4)no3)CC2)cc1 [Compound 11, 5-[1-(4-(Hydroxymethyl)benzyl)piperidin-4-yl]-3-(naphthalen-2-yl)-1,2,4-oxadiazole] | reversed the effect | only a trend | 
2 | 6.4 ± 0.1 µM | 4.4 | CCCCCN1CCC(c2nc(-c3ccc4ccccc4c3)no2)CC1 [Compound 5, 3-(Naphthalen-2-yl)-5-(1-pentylpiperidin-4-yl)-1,2,4-oxadiazole] | reversed the effect | only a trend | showed antagonistic activity
